The record followed here is US8372867B2, “Insecticidal aryl isoxazoline derivatives” (Bayer CropScience AG, priority 2007, dated 2013).

The test system of test [1] is Spodoptera litura. The test can be described thus: Test against larva of Spodoptera litura (leaf dip). Conditions: 100 ppm of the active compound; third instar larvae; after 7 days. Type of test: in vivo. The method, then: Solvent: Dimethylformamide 3 parts by weight
Emulsifier: Polyoxyethylene alkyl phenyl ether 1 part by weight
(§1) To prepare an appropriate formulation of an active compound, 1 part by weight of the active compound was mixed with the aforementioned amount of the solvent containing the aforementioned amount of the emulsifier, and the mixture was diluted to a prescribed concentration with water.
Leaves of sweet potate were soaked in the test agent diluted to a prescribed concentration with water, air-dried, and placed in a dish of 9 cm in diameter. Into this dish, 10 larvae of Spodoptera litura at the third instar were released and kept in a room at constant temperature of 25° C. After 2 and 4 days, more leaves of sweet potato were added, and the number of dead larvae after 7 days was counted to calculate the death rate. In this test, the test results are presented as an average of the results of two dishes per section.

Test [2] deals with organic phosphorus agent- and carbamate agent-resistant Myzus persicae. The test can be described thus: Test against organic phosphorus agent- and carbamate agent-resistant Myzus persicae (spray). It is filed as in vivo. As to conditions: 500 ppm of the active compound; adults on eggplant; 7 days at 28° C. The method, then:
as §1
About 30 to 50 adults of organic phosphorus agent- and carbamate agent-resistant Myzus persicae per seedling were inoculated to leaves of eggplants at two leaf stage cultured in a pot of 6 cm in diameter. One day after the inoculation, an ample amount of the diluted aqueous solution of the prescribed concentration of an active compound prepared in the same manner as in the aforementioned tests was sprayed with a spray gun. After the spraying, the pot was kept in a greenhouse at 28° C. for 7 days, the death rate was calculated. The test was duplicated.

Test [3] concerns Aulacophora femoralis. The test can be described thus: Test against Aulacophora femoralis (leaf dip). As to conditions: 100 ppm of the active compound; second instar larvae; after 7 days. It is filed as in vivo. The method, then: as §1
Leaves of cucumbers were soaked in a diluted aqueous solution of the prescribed concentration of an active compound prepared in the same manner as in the aforementioned tests, air-dried, and placed a plastic cup containing sterilized black soil. Into this cup, 5 larvae of Aulacophora femoralis at second instar were then released. After 7 days, the number of dead larvae was counted to calculate the death rate.

Test [4] relates to Lucilia cuprina larvae. The test can be described thus: whole plant or invertebrate. Conditions: in Equus caballus, read-out: activity (mortality in %).
In test [5] the test system is Amblyomma hebraeum. The test is described as follows: Test against Amblyomma hebraeum (nymph dip). It is filed as in vivo. Conditions: 1008 h, read-out: activity (mortality in %). The procedure: Nymphs of the tick Amblyomma hebraeum are placed in perforated plastic beakers and immersed in aqueous compound solution for one minute. Ticks are transferred to a filter paper in a Petri dish and incubated in a climate chamber for 42 days.

Test [6] relates to Musca domestica. The test can be described thus: whole plant or invertebrate. Conditions: read-out: activity (mortality in %).
In test [7] the test system is Boophilus microplus. The test is described as follows: whole plant or invertebrate. As to conditions: Rhipicephalus microplus, 168 h, read-out: activity (mortality in %).
In test [8] the test system is Ctenocephalides felis. The test can be described thus: Test against Ctenocephalides felis (Example 5-1, blood feeding, dimethylformamide). Type of test: in vivo. As to conditions: 100 ppm of the active ingredient; adults fed on treated blood. The procedure: In order to prepare an appropriate formulation of an active compound, 10 mg of the active compound is dissolved in 0.5 mL of the aforementioned solvent, and the mixture is diluted to a prescribed concentration with blood from domestic animals.
About 10 to 15 adults of Ctenocephalides felis were kept in a flea-specific container. Another container containing the blood solution containing the compound prepared as described above was covered with a laboratory film [[…]™]. The blood containing container was turned upside down and placed on the flea-specific container. This system enables Ctenocephalides felis to suck the blood in the container. The blood solution was kept at 37° C. and the flea-specific container was kept at room temperature. After a certain period of time, the death rate of Ctenocephalides felis was calculated. For this test, the death rate of 100% means death of all Ctenocephalides felis, while the death rate of 0% means that all the fleas survived.

Test [9] relates to Lucillia cuprina. The test is described as follows: Test against Lucillia cuprina (Example 7-1, dimethylformamide). Type of test: in vivo. Conditions: 100 ppm of the active ingredient; larvae on minced horsemeat. The procedure: (§2) In order to prepare an appropriate formulation of an active compound, 10 mg of the active compound was dissolved in 0.5 mL of the aforementioned solvent, and the mixture was diluted to a prescribed concentration with water.
About 20 to 30 larvae of Lucillia cuprina were placed into a test tube containing 1 cm^3 of minced horsemeat and 0.5 mL of an aqueous solution of a compound prepared as above.
After a certain period of time, the death rate of Lucillia cuprina was calculated. For this test, the death rate of 100% means death of all Lucillia cuprina, while the death rate of 0% means that all the flies survived.

Test [10] concerns Boophilus microplus. The test can be described thus: Test against Boophilus microplus (injection, Example 6-1, dimethylformamide). It is filed as in vivo. As to conditions: dose of 20 ug/animal; injection into abdomen of fully fed adult females. The procedure:
as §2
A solution of a compound formulated as above was injected into 5 fully fed adult female Boophilus microplus in their abdomen. These Boophilus microplus were transferred to a replica dish and kept in an incubating cabinet for a certain period of time.
After a certain period of time, the death rate of Boophilus microplus was calculated. In this test, the death rate of 100% means death of all Boophilus microplus, while the death rate of 0% means that all the mites survive.

For test [11], the system named is Musca domestica. The test is described as follows: Test against Musca domestica (Example 8-1, dimethylformamide). It is filed as in vivo. Conditions: 100 ppm of the active ingredient; adults, sugar/compound soaked sponge. The method, then:
In order to prepare an appropriate formulation of an active compound, 10 mg of the active compound was dissolved in 0.5 mL of the above solvent, and the resultant mixture was diluted to a prescribed concentration with water.
As a preparatory stage, a mixture of sugar and an aqueous solution of a compound prepared as above was absorbed into a sponge of a given size, and the sponge was place into a test container. 10 adult insects of Musca domestica were placed into the container, and the container was covered with a perforated cover.
After a certain period of time, the death rate of Musca domestica is calculated. In this test, the death rate of 100% means death of all Musca domestica, while the death rate of 0% means that all the flies survived.

For test [12], the system named is Ixodes ricinus. The test is described as follows: Efficacy against ticks (Ixodes ricinus) on cats. It is filed as in vivo. As to conditions: 0.1 ml/kg (15 mg/kg) applied as Spot on, once on day 0, weekly reinfestation. The method, then:
On study days −4 and/or −1 cats are sedated with a combination of the active ingredients ketaminhydrochloride and acepromazinmaleat. After all cats are sedated (approximately after 10-15 minutes) the cats are placed in single cages and 50 Ixodes ricinus ticks (25 female and 25 male) are released on the fur on the back of the cat. The cats are sleeping for about 1 h to 1.5 h and restrained from grooming and removing the ticks.
On study days −3 or 0 tick infestation rate is checked, while the cats are placed on an examination table. The area around the head, ears, eyes, neck and lateral and ventral part of the body and between the toes is checked intensively. The number of live attached engorged ticks is counted and recorded. Dead ticks are removed.
After tick counting on study day 0 treatment is performed. Cats of the control group are left untreated and serve as negative control group. The investigational veterinary product is applied as one single spot on the skin at the base of the skull. Treatment is performed only once on day 0. […]
On study day 1 and/or 2 tick counts are performed and the number of life or dead attached ticks counted and recorded. […]
In weekly intervals each cat is infested with 50 Ixodes ricinus ticks (25 female and 25 male) and tick counts are performed 1 and/or 2 days after reinfestation. Life and dead attached ticks are counted and recorded. […]

The subject of test [13] is Ctenocephalides felis felis. The test is described as follows: Efficacy against fleas Ctenocephalides felis felis on cats. Type of test: in vivo. As to conditions: 0.1 ml/kg (15 mg/kg) applied as Spot-on, once on day 0, weekly reinfestation. The method, then:
On study days −4 and −1 prior to treatment cats are infested with about 100 adult not fed fleas (Ctenocephalides felis felis). The fleas are released on the neck on the fur of the cats
On study day 0 the flea infestation rate is checked by counting the fleas on the animals. The number of live fleas is recorded.
After flea counting the cats are treated with the investigational product. Cats of the control group are left untreated and serve as negative control group. The investigational veterinary product is applied dermally as one spot at a dose volume of 0.1 to 0.2 ml/kg body weight. Treatment is performed only once on study day 0. Only healthy cats are treated and included in the study.
Flea counts are performed on study days 1 and/or 2 where the cats are combed and the number of live fleas recorded. The results are documented.
In weekly intervals the cats are reinfested with about 100 adult not fed fleas per cat. One and/or two days after reinfestation the cats are combed and the live fleas counted for each animal. The results are recorded.
Efficacy should be given over a three to four week period
For the calculation of the effectiveness the modified Abbott formula is used: […]

By mortality is commonly meant the percentage killed.

As for `O=C(NCc1ccc(C2=NOC(c3cc(Cl)cc(Cl)c3)(C(F)(F)F)C2)cc1Br)c1ccccc1Cl` (stereo not shown) [1-31], the death rate in test [1], in test [2] and in test [3] was 100% each time.

With `CC(=S)NCc1ccc(C2=NOC(c3cc(Cl)cc(Cl)c3)(C(F)(F)F)C2)cc1Br` (stereo not shown) [1-44, N-{2-bromo-4-[5-(3,5-dichlorophenyl)-5-(trifluoromethyl)-4,5-dihydroisoxazol-3-yl]benzyl}ethanethioamide], the mortality at 100 ppm in test [4], in [5], in test [6] and in test [7] was no less than 80% each time. The death rate in test [1] and in [3] was 100% each time.

Take `CC(=O)N(Cc1ccccn1)Cc1ccc(C2=NOC(c3cc(Cl)cc(Cl)c3)(C(F)(F)F)C2)cc1C#N` (stereo not shown) [1-61, N-{2-cyano-4-[5-(3,5-dichlorophenyl)-5-(trifluoromethyl)-4,5-dihydroisoxazol-3-yl]benzyl}-N-(pyridin-2-ylmethyl)acetamide]: the mortality at 100 ppm in test [4] and in test [6] was no less than 80% in each case. The death rate in [1], in [2] and in test [3] was 100% throughout.

On to `CC(=O)NCc1ccc(C2=NOC(c3cc(Cl)cc(Cl)c3)(C(F)(F)F)C2)cc1C` (stereo not shown) [1-63, N-{4-[5-(3,5-dichlorophenyl)-5-(trifluoromethyl)-4,5-dihydroisoxazol-3-yl]-2-methylbenzyl}acetamide], for which the mortality at 100 ppm in test [4], in test [6] and in [7] was no less than 80% throughout. The death rate in test [1] and in [3] was 100% each time.

With `CC(=O)N(Cc1ccccn1)Cc1ccc(C2=NOC(c3cc(Cl)cc(Cl)c3)(C(F)(F)F)C2)cc1C` (stereo not shown) [1-64], the death rate entry in test [8], in test [9], in test [10] and in [11] was “more than 80%” each time.

As for `CC(=O)NCc1ccc(C2=NOC(c3cc(Cl)c(Cl)c(Cl)c3)(C(F)(F)F)C2)cc1Br` (stereo not shown) [1-129], the “efficacy (modified Abbott formula)” value in test [12] was greater than 90%; in test [13] it was greater than 95%.
